The target in this assay is T1, alpha4-beta7 (Homo sapiens, UniProt P13612+P26010).
T1 construct: Sufficient RPMI 8866 cells were removed from stock for assay; endogenous in cells; host or cells: RPMI 8866 cells
T1 sequence (P13612 34-1032): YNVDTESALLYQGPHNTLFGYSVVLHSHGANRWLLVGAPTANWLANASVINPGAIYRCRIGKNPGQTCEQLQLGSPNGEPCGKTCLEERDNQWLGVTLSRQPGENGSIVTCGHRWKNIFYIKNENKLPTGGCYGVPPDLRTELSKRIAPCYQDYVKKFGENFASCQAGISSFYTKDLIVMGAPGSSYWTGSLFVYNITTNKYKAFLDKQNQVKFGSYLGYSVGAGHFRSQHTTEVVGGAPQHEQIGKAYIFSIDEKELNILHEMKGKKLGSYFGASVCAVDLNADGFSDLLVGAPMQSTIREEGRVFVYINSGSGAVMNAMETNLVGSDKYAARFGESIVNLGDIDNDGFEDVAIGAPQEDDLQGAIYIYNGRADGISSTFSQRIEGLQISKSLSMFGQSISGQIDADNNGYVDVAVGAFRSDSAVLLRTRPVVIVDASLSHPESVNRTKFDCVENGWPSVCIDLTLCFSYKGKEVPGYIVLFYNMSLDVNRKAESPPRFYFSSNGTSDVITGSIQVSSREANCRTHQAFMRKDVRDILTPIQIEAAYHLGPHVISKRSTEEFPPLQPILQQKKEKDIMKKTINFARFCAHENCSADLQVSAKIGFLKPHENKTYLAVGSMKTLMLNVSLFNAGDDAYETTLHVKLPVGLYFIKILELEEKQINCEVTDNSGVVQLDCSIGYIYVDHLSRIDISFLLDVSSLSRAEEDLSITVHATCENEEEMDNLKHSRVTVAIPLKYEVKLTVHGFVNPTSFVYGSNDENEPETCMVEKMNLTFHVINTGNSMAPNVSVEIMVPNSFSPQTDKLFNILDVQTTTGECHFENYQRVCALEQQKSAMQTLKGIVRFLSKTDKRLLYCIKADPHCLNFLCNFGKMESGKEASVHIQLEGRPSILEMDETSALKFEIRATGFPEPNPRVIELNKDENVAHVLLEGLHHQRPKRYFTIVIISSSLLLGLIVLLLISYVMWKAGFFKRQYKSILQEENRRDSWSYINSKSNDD
T1 sequence (P26010 20-798): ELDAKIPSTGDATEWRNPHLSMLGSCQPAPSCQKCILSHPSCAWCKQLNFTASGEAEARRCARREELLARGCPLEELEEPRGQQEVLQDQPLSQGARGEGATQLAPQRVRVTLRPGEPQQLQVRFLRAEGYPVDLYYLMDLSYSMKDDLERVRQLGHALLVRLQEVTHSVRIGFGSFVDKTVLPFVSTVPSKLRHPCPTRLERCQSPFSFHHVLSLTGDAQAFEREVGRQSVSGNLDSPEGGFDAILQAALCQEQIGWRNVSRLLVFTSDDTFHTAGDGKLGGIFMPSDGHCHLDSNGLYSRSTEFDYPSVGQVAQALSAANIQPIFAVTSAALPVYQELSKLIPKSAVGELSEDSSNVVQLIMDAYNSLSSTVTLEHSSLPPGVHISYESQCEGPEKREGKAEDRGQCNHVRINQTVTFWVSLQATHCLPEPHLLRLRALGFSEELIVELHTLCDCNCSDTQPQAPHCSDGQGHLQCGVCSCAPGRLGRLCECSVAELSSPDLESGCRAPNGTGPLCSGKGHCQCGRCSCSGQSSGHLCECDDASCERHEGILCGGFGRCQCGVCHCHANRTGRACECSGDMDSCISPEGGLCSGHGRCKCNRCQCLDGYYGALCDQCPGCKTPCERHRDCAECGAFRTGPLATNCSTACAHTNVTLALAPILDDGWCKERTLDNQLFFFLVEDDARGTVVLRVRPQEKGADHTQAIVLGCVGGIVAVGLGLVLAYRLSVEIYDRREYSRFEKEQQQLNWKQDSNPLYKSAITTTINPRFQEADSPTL
The experiment in a line: Alpha4-Beta7 Assay (MadCAM/RPMI 8866 cell adhesion). In kind it is cell-based. To be noted: calcein labeled RPMI 8866 cells adhering to immobilized MadCAM. How it is done:
Alpha4-Beta7 Assay Protocol
Two weeks to one day prior to the assay, Nunc high-binding F96 Maxisorp immuno plates, #442404 or #439454, were coated with 25 ng/well (0.25 μg/ml) MadCAM in a volume of 100 μl/well. The plates were covered with sealer and wrapped in saran wrap followed by incubation in the refrigerator for at least 24 hours. The coating buffer employed was: 10 mM carbonate/bicarbonate buffer made up from: 0.8 g/L sodium carbonate and 1.55 g/L sodium bicarbonate adjusted to pH 9.6 with 1 N HCl. Assay buffers consisted of the following:
Plates were washed 2× with wash buffer and then blocked at room temperature for at least 1 hour with Blocking Buffer. Sealed plates were sometimes blocked overnight in the refrigerator. Plates were then washed with PBS and hand blotted dry. Remaining liquid was aspirated from the wells.
Sufficient RPMI 8866 cells were removed from stock for assay (2×10^6 cells/ml×10 ml/plate×number of plates) and placed in a centrifuge tube. The tubes were filled to volume with PBS and were spun at 200×G for 8 minutes. The buffer was poured off and the cells were resuspended to 10×10^6/ml in PBS and a stock solution of calcein in DMSO (5mg/mL) was added at 51 μl/ml of cell suspension. The suspension was incubated for 30 minutes at 37° C. in dark. The cells were then washed with PBS. The PBS was poured off and the cells resuspended in cell buffer at a concentration of 2×10^6 cells/mL for plating in the assay.
Stock solution of test compounds at 25× first dilution desired in 100% DMSO were prepared. First dilutions for the standard, as well as test compounds, were 1:25 into straight Binding Buffer, while the remaining serial dilutions were into Dilution Buffer (Binding Buffer/4% DMSO). Stock concentrations and dilutions of compounds for screening were determined by anticipated activity.
For the assay, 129 μl Binding Buffer was plated into first row of wells and 100 μl Dilution Buffer was plated into remaining wells. A 5.44 μl aliquot of each compound was pipetted into appropriate, labeled wells, in triplicate. The compounds were next diluted down the plate (34 μl+100 μl=>4-fold dilution). For controls, 100 μl of Dilution Buffer 100 μl Cell Buffer were plated into the nonspecific background wells (no cells, no compound) and 100 μl Dilution Buffer+100 μl cells were plated into the total binding wells (no compound=100% binding). Labeled cells at 2×10^6 cells/ml, 100 μl/well (=2×10^5 cells/well) were added to each well containing compound. The plates were sealed and incubated in the dark for 45 minutes at room temperature. Following incubation, unbound cells were removed by adding 150 μl PBS/well. The plates were inverted, blotted onto paper towels and washed by gently adding 200 μl PBS to wells and blotting again. Remaining buffer was carefully aspirated from the wells. A final 100 μl PBS was added to each well.
The plates were then read for fluorescence intensity on a Cytofluor 2300 (Millipore) fluorecence measurement system (excitation=485 nm, emission=530 nm). IC50s of each compound were determined by linear regression analysis.

Bounds are passed on as bounds.

For `Cc1c(-c2ccc(C[C@H](NC(=O)c3c(Cl)cccc3Cl)C(=O)O)cc2)c(=O)n(C)c(=O)n1C` [Example 6, N-[(2,6-dichlorophenyl)carbonyl]-4-(1,3,6-trimethyl-2,4-dioxo-5-pyrimidinyl)-L-phenylalanine], the IC50 (in general, the midpoint of a concentration-inhibition curve) is less than 0.1 µM.
As to `COCCC1(C(=O)N[C@@H](Cc2ccc(-c3c(C)n(C)c(=O)n(C)c3=O)cc2)C(=O)O)CCCC1` [Example 7, N-[[1-(2-methoxyethyl)cyclopentyl]carbonyl]-4-(1,3,6-trimethyl-2,4-dioxo-5-pyrimidinyl)-L-phenylalanine], the IC50 was less than 0.1 µM.
`Cc1cccc(Cl)c1C(=O)N[C@@H](Cc1ccc(-c2c(C)n(C)c(=O)n(C)c2=O)cc1)C(=O)O` [Example 9, N-[(2-chloro-6-methylphenyl)carbonyl]-4-(1,3,6-trimethyl-2,4-dioxo-5-pyrimidinyl)-L-phenylalanine]: the IC50 is less than 0.1 µM.
As for `Cc1cccc(C(C)C)c1C(=O)N[C@@H](Cc1ccc(-c2c(C)n(C)c(=O)n(C)c2=O)cc1)C(=O)O` [Example 11, N-[[2-(2-methylethyl)-6-methylphenyl]carbonyl]-4-(1,3,6-trimethyl-2,4-dioxo-5-pyrimidinyl)-L-phenylalanine], the IC50 was less than 5 µM.
Regarding `Cc1c(-c2ccc(C[C@H](NC(=O)c3c(F)cccc3F)C(=O)O)cc2)c(=O)n(C)c(=O)n1C` [Example 12, N-[(2,6-difluorophenyl)carbonyl]-4-(1,3,6-trimethyl-2,4-dioxo-5-pyrimidinyl)-L-phenylalanine], the IC50 is less than 0.1 µM.
Regarding `Cc1c(-c2ccc(C[C@H](NC(=O)c3c(C(C)C)cccc3C(C)C)C(=O)O)cc2)c(=O)n(C)c(=O)n1C` [Example 14, N-[[2,6-di-(2-methylethyl)phenyl]carbonyl]-4-(1,3,6-trimethyl-2,4-dioxo-5-pyrimidinyl)-L-phenylalanine], the IC50 is less than 5 µM.
`CCn1c(C)c(-c2ccc(C[C@H](NC(=O)c3c(Cl)cccc3Cl)C(=O)O)cc2)c(=O)n(CC)c1=O` [Example 18, N-[(2,6-dichlorophenyl)carbonyl]-4-(1,3-diethyl-6-methyl-2,4-dioxo-5-pyrimidinyl)-L-phenylalanine]: the IC50 is less than 0.1 µM.
On to `CCn1c(C)c(-c2ccc(C[C@H](NC(=O)c3c(C)cccc3Cl)C(=O)O)cc2)c(=O)n(CC)c1=O` [Example 19, N-[(2-chloro-6-methylphenyl)carbonyl]-4-(1,3-diethyl-6-methyl-2,4-dioxo-5-pyrimidinyl)-L-phenylalanine], for which the IC50 is less than 10 µM.
As for `CCn1c(C)c(-c2ccc(C[C@H](NC(=O)C3(CCOC)CCCC3)C(=O)O)cc2)c(=O)n(CC)c1=O` [Example 20, 4-(1,3-diethyl-6-methyl-2,4-dioxo-5-pyrimidinyl)-N-[[1-(2-methoxyethyl)cyclopentyl]carbonyl]-L-phenylalanine], the IC50 was less than 10 µM.
Regarding `Cc1cc(C[C@H](NC(=O)c2c(Cl)cccc2Cl)C(=O)O)ccc1-c1cn(C)c(=O)n(C)c1=O` [Example 25, N-[(2,6-dichlorophenyl)carbonyl]-4-(1,3-dimethyl-2,4-dioxo-5-pyrimidinyl)-3-methyl-L-phenylalanine], the IC50 is less than 10 µM.
Consider `Cc1cc(C[C@H](NC(=O)c2c(Cl)cccc2Cl)C(=O)O)ccc1-c1c(C)n(C)c(=O)n(C)c1=O` [Example 26, N-[(2,6-dichlorophenyl)carbonyl]-4-(1,3,6-trimethyl-2,4-dioxo-5-pyrimidinyl)-3-methyl-L-phenylalanine], for which the IC50 is less than 10 µM.
On to `CCOC(=O)[C@H](Cc1ccc(-c2c(C)n(C)c(=O)n(C)c2=O)cc1)NC(=O)c1c(Cl)cccc1Cl` [Example 27, N-[(2,6-dichlorophenyl)carbonyl]-4-(1,3,6-trimethyl-2,4-dioxo-5-pyrimidinyl)-L-phenylalanine ethyl ester], for which the IC50 was less than 10 µM.

These data come from patent US6380387B1, “4-Pyrimidinyl-n-acyl-l phenylalanines” (Hoffmann-La Roche Inc., priority 1999, dated 2002).
